This note sets out measurements from ChEMBL document CHEMBL3792352, “3D-QSAR-aided design, synthesis, in vitro and in vivo evaluation of dipeptidyl boronic acid proteasome inhibitors and mechanism studies” (Bioorg Med Chem, 2016).

Data set [1] can be described thus: Cytotoxicity against human ARH77 cells assessed as cell viability after 72 hrs by CellTiter 96 aqueous one solution cell proliferation assay. Type of data set: functional, ARH-77.
A short description of data set [2]: Cytotoxicity against human RPMI8226 cells assessed as cell viability after 72 hrs by CellTiter 96 aqueous one solution cell proliferation assay. In kind it is functional, RPMI-8226.
In data set [3] the test system is Rattus norvegicus. Put plainly: Cmax in Sprague-Dawley rat at 0.2 mg/kg, ig through feeding tube by LC/MS/MS analysis. Type of data set: ADME, organism-based. The arrangement: dose 0.2 mg/kg, route intragastric. Particulars: in vivo, po.
The test system of data set [4] is Rattus norvegicus. The experiment in a line: Elimination half life in Sprague-Dawley rat at 0.2 mg/kg, ig through feeding tube by LC/MS/MS analysis. Type of data set: ADME, organism-based. Particulars: in vivo, po.
Data set [5] is described as follows: AUClast in Sprague-Dawley rat at 1 mg/kg, caudal iv by LC/MS/MS analysis. The note with it: in vivo. On the set-up: dose 1 mg/kg, route intravenous, time 0 - last. Type of data set: ADME, organism-based.
Data set [6] can be described thus: MRTlast in Sprague-Dawley rat at 1 mg/kg, caudal iv by LC/MS/MS analysis. In kind it is ADME, organism-based. Particulars: in vivo.
For data set [7], the target named is T1, Proteasome Macropain subunit MB1 (Homo sapiens, UniProt P28074).
T1 sequence (P28074 whole entry): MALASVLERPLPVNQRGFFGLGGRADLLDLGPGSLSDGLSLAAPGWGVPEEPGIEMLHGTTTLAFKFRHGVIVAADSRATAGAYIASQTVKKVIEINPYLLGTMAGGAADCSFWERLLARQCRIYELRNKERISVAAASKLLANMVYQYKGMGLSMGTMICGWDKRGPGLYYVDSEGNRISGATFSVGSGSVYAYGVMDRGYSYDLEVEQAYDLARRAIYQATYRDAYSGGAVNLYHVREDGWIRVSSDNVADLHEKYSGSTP
The experiment in a line: Inhibition of chymotrypsin like activity of human 20S proteasome using Suc-Leu-Leu-Val-Tyr-AMC as substrate preincubated for 10 mins followed by substrate addition measured after 1 hr by spectrofluorimetric analysis. The note with it: read-out: IC50.

The test system of data set [8] is Rattus norvegicus. The experiment in a line: Tmax in Sprague-Dawley rat at 0.2 mg/kg, ig through feeding tube by LC/MS/MS analysis. The note with it: in vivo, po. In kind it is ADME, organism-based.
Data set [9] in a line: Cell cycle arrest in human U266 cells assessed as accumulation at G2/M phase at 10 nM by propidium iodide/RNase staining based flow cytometric analysis (reference value: 12.33 %). Particulars: U-266. Type of data set: functional. On the technique in general: Flow cytometry measures light scatter and fluorescence of single cells or particles in a stream.
A short description of data set [10]: Cytotoxicity against human U266B1 cells assessed as cell viability after 72 hrs by CellTiter 96 aqueous one solution cell proliferation assay. In kind it is functional, U-266.
Data set [11] is described as follows: AUClast in Sprague-Dawley rat at 0.2 mg/kg, ig through feeding tube by LC/MS/MS analysis. The note with it: in vivo, po. On the set-up: dose 0.2 mg/kg, route intragastric, time 0 - last. In kind it is ADME, organism-based.
A short description of data set [12]: Cell cycle arrest in human U266 cells assessed as accumulation at G1 phase at 10 nM by propidium iodide/RNase staining based flow cytometric analysis (reference value: 58.21 %). The note with it: U-266. Type of data set: functional.
Data set [13] in a line: Cell cycle arrest in human U266 cells assessed as accumulation at S phase at 10 nM by propidium iodide/RNase staining based flow cytometric analysis (reference value: 29.47 %). Type of data set: functional. Particulars: U-266.
The nature of data set [14]: Cmax in Sprague-Dawley rat at 1 mg/kg, caudal iv by LC/MS/MS analysis. Type of data set: ADME, organism-based. The arrangement: dose 1 mg/kg, route intravenous. The note with it: in vivo.
A short description of data set [15]: AUC(0 to infinity) in Sprague-Dawley rat at 1 mg/kg, caudal iv by LC/MS/MS analysis. Type of data set: ADME, organism-based. On the set-up: dose 1 mg/kg, route intravenous, time infinity. The note with it: in vivo.
The test system of data set [16] is Rattus norvegicus. The experiment in a line: AUC(0 to infinity) in Sprague-Dawley rat at 0.2 mg/kg, ig through feeding tube by LC/MS/MS analysis. Type of data set: ADME, organism-based. The arrangement: dose 0.2 mg/kg, route intragastric, time infinity. Particulars: in vivo, po.
A short description of data set [17]: Elimination half life in Sprague-Dawley rat at 1 mg/kg, caudal iv by LC/MS/MS analysis. Type of data set: ADME, organism-based. The note with it: in vivo, read-out: beta t1/2 (converted).
A short description of data set [18]: MRTlast in Sprague-Dawley rat at 0.2 mg/kg, ig through feeding tube by LC/MS/MS analysis. In kind it is ADME, organism-based. Particulars: in vivo, po.

What is called Cmax is the highest concentration seen after dosing. Usually AUC(0-t) stands for the area under the concentration-time curve up to a stated or last time point. Low readings indicate less exposure, high ones more exposure. For orientation: MRT last means the average time that molecules of a dose stay in the body. What is called IC50 is the concentration that gives 50% inhibition. As a reminder, the Tmax is the time from dosing to the highest level. In general, AUC(0-inf) refers to total exposure, with the tail of the curve extrapolated. A high value points to more exposure. One may read the AUC as concentration integrated over time. A low value points to less exposure.

As for `COc1ccc(C[C@H](NC(=O)c2cc(Cl)ccc2Cl)C(=O)N[C@@H](CC(C)C)B(O)O)c(OC)c1`, the Activity in [1] turned out to be 14.58%; in data set [2], 37.78%; in data set [9], 21.5%; in data set [10], 18.66%; in data set [12], 43.7%; in data set [13], 34.8%. In addition, the Cmax in data set [3] amounted to 245 ng/mL; in data set [14], 7.83 ng/mL. Besides, in data set [4], the “beta t1/2” value turned out to be 0.2 h. Moreover, the area under the curve AUC(0-t) in [5] came to 47.9 ng·h/mL; in data set [11], 407 ng·h/mL. Further, the MRT last in data set [6] stood at 8.44 h; in data set [18] it was 6.9 h. The IC50 in [7] is 4.6 nM. Further, in data set [8], the Tmax is 1.8 min. The compound further showed an AUC(0-inf) in data set [15] of 83 ng·h/mL. This compound registered an AUC in data set [16] of 408 ng·h/mL. For the same compound, in data set [17], the half-life is 7.24 h.
In the case of `CC(C)C[C@H](NC(=O)[C@H](Cc1ccc(C(F)(F)F)cc1)NC(=O)c1cc(Cl)ccc1Cl)B(O)O`, the values for the Activity in data set [1], in [2] and in data set [10] were 98.15%, 233.7% and 100.4%, respectively. In [7], the IC50 worked out at 8.32 nM.
`CC(C)C[C@H](NC(=O)[C@H](Cc1ccccc1)NC(=O)c1cnccn1)B(O)O` [BORTEZOMIB]: the Activity came out at 9.57% in data set [1], 11.2% in [2] and 11.63% in [10].
